Test results from paper PMC6629894, “Ruthenium Complexes Containing Heterocyclic Thioamidates Trigger Caspase-Mediated Apoptosis Through MAPK Signaling in Human Hepatocellular Carcinoma Cells” (Frontiers in Oncology, 2019).
pIC50: −log10 of the molar value. Read-outs that look alike come from different tables or passages of the source.

What was measured:
[1] = test system: K-562 (human chronic myelogenous leukemia); assay: Alamar blue cytotoxicity assay, 72 h; assay type: cell-based
Description: (§1) The cell lines HepG2 (human hepatocellular carcinoma), HL-60 (human promyelocytic leukemia), K-562 (human chronic myelogenous leukemia), B16-F10 (mouse melanoma), MCF-7 (human breast carcinoma), HCT116 (human colon carcinoma), HSC-3 (human oral squamous cell carcinoma), SCC-4 (human oral squamous cell carcinoma), MRC-5 (human lung fibroblast), WT SV40 MEF (wild-type immortalized mouse embryonic fibroblast), and BAD KO SV40 MEF (BAD gene knockout immortalized mouse embryonic fibroblasts) were obtained from the American Type Culture Collection (ATCC, Manassas, VA, USA). Cells were cultured in RPMI 1640 medium (Gibco-BRL, Gaithersburg, MD, USA) with 10% fetal bovine serum (Life, Carlsbad, CA, USA), 2 mM L-glutamine (Vetec Química Fina, Duque de Caxias, RJ, Brazil) and 50 μg/mL gentamycin (Life). For all experiments, adherent cells were collected by treatment with 0.25% trypsin-EDTA solution (Gibco-BRL). All cell lines were cultured in flasks at 37°C in 5% CO2 and were subcultured every 3–4 days to maintain exponential growth. All cell lines were tested for mycoplasma using a mycoplasma staining kit (Sigma-Aldrich Co.) to validate that the cells that were used were free from contamination.
(§2) Cytotoxicity was measured colorimetrically using an Alamar blue method that was performed as previously described ([20], [21]). Cells were seeded in 96-well plates for all experiments (7 × 10^4 cells/mL for adherent cells or 3 × 10^5 cells/mL for suspension cells in 100 μL of medium) and incubated overnight at 37°C with 5% CO2 to allow for adherence. The complexes were dissolved in 0.5% dimethyl sulfoxide (DMSO, Vetec Química Fina) at eight different concentrations from 0.19 to 25 μg/mL and were added to each well and incubated for 72 h. The negative control was treated with the vehicle (0.5% DMSO) that was used to solubilize and dilute the complexes. […] Four (for cell lines) or 24 h (for PBMCs) before the end of incubation, 20 μL of a stock solution (0.312 mg/mL) of resazurin (Sigma-Aldrich Co.) was added to each well. Absorbance was measured at 570 and 600 nm using a SpectraMax 190 Microplate Reader (Molecular Devices, Sunnyvale, CA, USA).

[2] = test system: HepG2 (human hepatocellular carcinoma); assay: Alamar blue cytotoxicity assay, 72 h; assay type: cell-based; settings: read-out: IC50 and 95% CI; HepG2, 72 h
Description: as §1, §2

B16-F10 (mouse melanoma) = assay: Alamar blue cytotoxicity assay, 72 h; assay type: cell-based
Description: as §1, §2

[3] = for Final body weight / Survival / Differential leukocytes: Eosinophils / Differential leukocytes: Lymphocytes / Differential leukocytes: Monocytes / Differential leukocytes: Neutrophils / Erythrocytes / Total leukocytes: 21 days; for Differential leukocytes: Eosinophils / Differential leukocytes: Lymphocytes / Differential leukocytes: Monocytes / Differential leukocytes: Neutrophils / Erythrocytes / Total leukocytes: peripheral blood
Protocol: A human hepatocellular carcinoma xenograft model was generated by subcutaneously implanting HepG2 cells (1 × 10^7 cells per 500 μL) into the left front armpit of C.B-17 SCID mice. […] The treatments were initiated one day after the cancer cell injection. The animals were treated intraperitoneally (200 μL per animal) once a day for 21 consecutive days. On the 22nd day, the animals were anesthetized, and peripheral blood samples were collected from the brachial artery. Animals were euthanized by an anesthetic overdose, and tumors were excised and weighed.
To evaluate the toxicological aspects, mice were weighed at the beginning and at the end of the experiment. […] Hematological analysis was performed using an Advia 60 hematology system (Bayer, Leverkusen, Germany).

[4] = test system: BAD KO SV40 MEF (BAD gene knockout immortalized mouse embryonic fibroblasts); assay: Alamar blue cytotoxicity assay, 72 h; assay type: cell-based; settings: read-out: IC50 and 95% CI
calf thymus DNA (ctDNA) = assay: DNA interaction assay (ethidium bromide displacement); assay type: binding
Protocol: DNA interaction was measured in a cell-free system as previously described ([22]). In this assay, the ability of the complexes to translocate ethidium bromide, a DNA intercalator, from calf thymus DNA (ctDNA, Sigma-Aldrich Co.) was examined. […] […] After a 15 min incubation at room temperature, fluorescence was measured using the excitation and emission wavelengths of 320 and 600 nm, respectively, using a Spectramax Microplate Reader (Molecular Devices).

[5] = test system: WT SV40 MEF (wild-type immortalized mouse embryonic fibroblast); assay: Alamar blue cytotoxicity assay, 72 h; assay type: cell-based; settings: read-out: IC50 and 95% CI
[6] = test system: HepG2 cells engrafted in C.B-17 SCID mice; assay: Human hepatocellular carcinoma xenograft model; assay type: in vivo; settings: for mean tumor mass: 21 days (negative control 0.6 ± 0.1 g)
Protocol: A total of 64 C.B-17 severe-combined immunodeficiency (SCID) mice (females, 25–30 g) were obtained and maintained at the animal facilities from Gonçalo Moniz Institute-FIOCRUZ (Salvador, Bahia, Brazil). Animals were housed in cages with free access to food and water. All animals were kept under a 12:12-h light-dark cycle (lights on at 6:00 a.m.). The animals were treated according to the ethical principles for animal experimentation of SBCAL (Brazilian Association of Laboratory Animal Science), Brazil. The Animal Ethics Committee of Gonçalo Moniz Institute–FIOCRUZ (Salvador, Bahia, Brazil) approved the experimental protocol (number 06/2015). Animal welfare was monitored throughout the study, and the pain and suffering were minimized.

[7] = test system: multicellular spheroids formed from HepG2 cells; assay: 3D multicellular spheroid culture, Alamar blue, 72 h; assay type: cell-based, human; settings: read-out: IC50 and 95% CI, 3D HepG2 spheroids
Protocol: HepG2 cells were cultivated as 3D multicellular spheroids in a 96-well plate with a cell-repellent surface. Briefly, 100 μL of a suspension of cells (5 × 10^5 cells/mL) was seeded into a 96-well plate with a cell-repellent surface (Greiner Bio-One, Kremsmünster, Austria) and cultured in RPMI 1640 medium with 10% fetal bovine serum, 2 mM glutamine plus 3% Matrigel (BD Biosciences, San Jose, CA, EUA) and 50 μg/mL gentamycin at 37°C with 5% CO2. Spheroids with stable structures formed after 3 days. Then, the complexes were dissolved in 0.5% DMSO at eight different concentrations from 0.19 to 25 μg/mL, were added to each well and incubated for 72 h. […] At the end of the experiment, morphological changes were examined by light microscopy (Olympus BX41, Tokyo, Japan) using Image-Pro software (Media Cybernetics, Inc. Silver Spring, USA), and cytotoxicity was quantified with the Alamar blue method as described above.

For `Cn1ccnc1[S-].F[P-](F)(F)(F)(F)F.[Ru+2].c1ccc(-c2ccccn2)nc1.c1ccc(P(CCCCP(c2ccccc2)c2ccccc2)c2ccccc2)cc1` [Complex 1, [Ru(mmi)(bipy)(dppb)]PF6], the “Selectivity index (SI = IC50 [noncancerous cells]/IC50 [cancer cells])” value (“Selectivity index” for short) ([1]; PBMCs vs K-562) was 1.9, the pIC50 ([1]; read-out: IC50 and 95% CI, K-562, 72 h) was 5.85 and the pIC50 [2] was 5.59. The “Selectivity index” value (B16-F10 (mouse melanoma); MRC-5 vs B16-F10) was 1.3, the “Selectivity index” value (B16-F10 (mouse melanoma); PBMCs vs B16-F10) was 1.5 and the Initial body weight ([3]; 0.5 mg/kg/day) was 21.7 ± 0.2 g. For the same compound, the Final body weight ([3]; 0.5 mg/kg/day i.p.) was 20.4 ± 0.3 g, the Survival ([3]; 0.5 mg/kg/day i.p.) was 10/10 and the Initial body weight ([3]; 1 mg/kg/day) was 20.3 ± 0.2 g. The Final body weight ([3]; 1 mg/kg/day i.p.) was 20.9 ± 0.4 g, the Survival ([3]; 1 mg/kg/day i.p.) was 10/10 and the “Differential leukocytes: Eosinophils” value ([3]; 0.5 mg/kg/day) was 0.7%. For the same compound, the “Differential leukocytes: Lymphocytes” value ([3]; 0.5 mg/kg/day) was 36.4%, the “Differential leukocytes: Monocytes” value ([3]; 0.5 mg/kg/day) was 39.9% and the “Differential leukocytes: Neutrophils” value ([3]; 0.5 mg/kg/day) was 23.8%. The Erythrocytes ([3]; 0.5 mg/kg/day) was 10.5 ± 0.6 10^6cells/μL, the Total leukocytes ([3]; 0.5 mg/kg/day) was 2.3 ± 0.4 10^3cells/μL and the “Differential leukocytes: Eosinophils” value ([3]; 1 mg/kg/day) was 1.4%. For the same compound, the “Differential leukocytes: Lymphocytes” value ([3]; 1 mg/kg/day) was 55.5%, the “Differential leukocytes: Monocytes” value ([3]; 1 mg/kg/day) was 20.1% and the “Differential leukocytes: Neutrophils” value ([3]; 1 mg/kg/day) was 24.4%. The Erythrocytes ([3]; 1 mg/kg/day) was 6.7 ± 0.9 10^6cells/μL, the Total leukocytes ([3]; 1 mg/kg/day) was 3.9 ± 1.9 10^3cells/μL and the pIC50 [4] was 6.15. For the same compound, the “reduction of the fluorescence intensity (ethidium bromide-ctDNA) vs negative control” value (“reduction of the fluorescence intensity” below) (calf thymus DNA (ctDNA); 5 μM) was 41.6%, the “reduction of the fluorescence intensity” value (calf thymus DNA (ctDNA); 10 μM) was 34.0% and the “reduction of the fluorescence intensity” value (calf thymus DNA (ctDNA); 20 μM) was 30.4%. For the same compound, the pIC50 [5] was 5.96, the mean tumor mass ([6]; 0.5 mg/kg/day i.p.) was 0.4 ± 0.1 g and the mean tumor mass ([6]; 1 mg/kg/day i.p.) was 0.3 ± 0.1 g. For the same compound, the “tumor mass inhibition rates” value ([6]; 0.5 and 1 mg/kg/day i.p., 21 days) was 31.5–45.4% and the pIC50 [7] was 5.19.
